Earlier results in patent publication US8784850B2, “Highly biocompatible dual thermogelling chitosan/glucosamine salt composition” (Oligo Médic Inc., priority 2010, dated 2014).

Legend:
rats [1] = details: ingestion of 300 to 2149 mg/kg of body weight
rabbits [2] = details: ingestion of 300 to 2149 mg/kg of body weight
dogs = details: ingestion of 300 to 2149 mg/kg of body weight
[3] = tested on: patients with osteoarthritis pain; details: oral administration, more than 3000 patients
[4] = tested on: outpatients with gonarthrosis
[5] = tested on: human blood glucose metabolism; details: human studies
rats [6] = details: rat, in vivo, po
mice = details: mouse, in vivo, po
rabbits [7] = details: rabbit, in vivo, po
[8] = intra-articular, after treatment
[9] = intra-articular, versus placebo

In the case of `N[C@H]1C(O)O[C@H](CO)[C@@H](O)[C@@H]1O` (stereo partly drawn) [glucosamine], the blood glucose levels (rats [1]) is given as “no effect on blood glucose levels”, the blood glucose levels (rabbits [2]) is given as “no effect on blood glucose levels” and the blood glucose levels (dogs) is given as “no effect on blood glucose levels”. For the same compound, the “adverse effects on blood, urine or fecal parameters” value [3] was “no adverse effects”, the “effectiveness in treating osteoarthritis pain” value [3] was “moderately to highly effective” and the “local or general intolerance symptoms” value ([4]; during and after treatment) was “no local or general intolerance symptoms”. The “angle of joint flexion” value [4, 8] was “substantially increased”, the knee swelling [4, 8] was “did not decrease significantly” and the active mobility [4, 9] was “a more favourable trend after glucosamine administration”. The pain-free patients [4, 9] was “significantly more pain-free patients”, the pain ([4]; one intra-articular injection per week for five weeks, versus placebo) was “reduced pain to a significantly greater extent than did placebo” and the “plasma levels of glucose or insulin, insulin sensitivity or glucose oxidation” value [5] was “did not affect”. For the same compound, the LD50 (rats [6]) was “exceed 5000 mg/kg”, the LD50 (mice) was greater than 8000 mg/kg and the LD50 (rabbits [7]) was greater than 8000 mg/kg.
